# Test results: patent publication EP4775208A1, “USE OF PRMT5 INHIBITOR IN TREATMENT OF TUMORS OR CANCERS” (Apeiron Therapeutics (Hong Kong) Ltd., priority 2023, dated 2025)
# Key:
# Format in all cases: cell-based
# BxPc-3 = experiment: Mini cell panel: inhibition of proliferation of BxPc-3 cells; conditions: Homo sapiens, BXPC-3, MTAP (-/-)
# Description: (§1) Test 9: Mini Cell Panel: Assay for Inhibitory Activity of Compounds against Proliferation of 20 Tumor Cell Lines
# (§2) Materials and Cells: Fifteen MTAP(-/-) cell lines and five MTAP wild-type cell lines were purchased from ATCC (USA). Cell culture media, fetal bovine serum (FBS), and penicillin-streptomycin were purchased from Thermo Fisher Scientific (USA). 384-well plates were purchased from PerkinElmer (USA). The CellTiter-Glo assay kit was purchased from Promega (USA). Paclitaxel was used as the control compound.
# CFPAC-1 = experiment: Mini cell panel: inhibition of proliferation of CFPAC-1 cells; conditions: Homo sapiens, CFPAC-1, MTAP Wild type
# Description: as §1, §2
# SU-DHL-4 = experiment: Mini cell panel: inhibition of proliferation of SU-DHL-4 cells; conditions: Homo sapiens, SU-DHL-4, MTAP Wild type
# Description: as §1, §2
# SW780 = experiment: Mini cell panel: inhibition of proliferation of SW780 cells; conditions: Homo sapiens, SW780, MTAP (-/-)
# Description: as §1, §2
# SU-DHL-10 = experiment: Mini cell panel: inhibition of proliferation of SU-DHL-10 cells; conditions: Homo sapiens, SU-DHL10, MTAP Wild type
# Description: as §1, §2
# MKN-45 = experiment: Mini cell panel: inhibition of proliferation of MKN-45 cells; conditions: Homo sapiens, MKN-45, MTAP (-/-)
# Description: as §1, §2
# U87MG MTAP(-/-) cells = experiment: Inhibition of proliferation of U87MG MTAP(-/-) cells (CellTiter-Glo); conditions: Homo sapiens, U-87 MG, 144 h, cell proliferation, 6 days
# Procedure: Test 7: Assay for Inhibitory Activity of Compounds against U87MG MTAP(-/-) Cell Proliferation
# as §2, with “The U87MG” for “Fifteen”, “line was” for “lines and five MTAP wild-type cell lines were”, “(USA).” for “(USA). Paclitaxel was used as the control compound.”
# Cell Culture: U87MG MTAP(-/-) cells were cultured in a medium supplemented with 10% fetal bovine serum (FBS) and 1% penicillin-streptomycin at 37°C with 5% CO2. Only cells in the logarithmic growth phase were used for experiments.
# (§3) Cell Proliferation Inhibition Assay: The antiproliferative activity of the compounds against U87MG MTAP(-/-) cells was assessed using the CellTiter-Glo assay kit. Cell suspensions were adjusted to the appropriate density and seeded into 384-well plates at a volume of 40 µL per well, then incubated overnight at 37°C with 5% CO2. Compounds (40 nL) were added to each well to achieve final concentrations ranging from 0 to 10,000 nM (starting concentration 10,000 nM, 3-fold serial dilutions, 10 dose points), with a final DMSO concentration of 0.5%. The cell plates were incubated at 37°C with 5% CO2 for 6 days. Subsequently, 40 µL of CellTiter-Glo reagent was added to measure cell viability. Paclitaxel was used as a control compound.
# PSN-1 = experiment: Mini cell panel: inhibition of proliferation of PSN-1 cells; conditions: Homo sapiens, PSN1, MTAP (-/-)
# Description: as §1, §2
# SK-MEL-5 = experiment: Mini cell panel: inhibition of proliferation of SK-MEL-5 cells; conditions: Homo sapiens, MTAP (-/-)
# Description: as §1, §2
# SW1573 = experiment: Mini cell panel: inhibition of proliferation of SW1573 cells; conditions: Homo sapiens, SW1573, MTAP (-/-)
# Description: as §1, §2
# Calu-1 = experiment: Mini cell panel: inhibition of proliferation of Calu-1 cells; conditions: Homo sapiens, Calu-1, MTAP Wild type
# Description: as §1, §2
# NCI-H647 = experiment: Mini cell panel: inhibition of proliferation of NCI-H647 cells; conditions: Homo sapiens, NCI-H647, MTAP (-/-)
# Description: as §1, §2
# MDA-MB-231 = experiment: Mini cell panel: inhibition of proliferation of MDA-MB-231 cells; conditions: Homo sapiens, MDA-MB-231, MTAP (-/-)
# Description: as §1, §2
# Aspc-1 = experiment: Mini cell panel: inhibition of proliferation of Aspc-1 cells; conditions: Homo sapiens, ASPC1, MTAP Wild type
# Description: as §1, §2
# A549 = experiment: Mini cell panel: inhibition of proliferation of A549 cells; conditions: Homo sapiens, A549, MTAP (-/-)
# Description: as §1, §2
# LN-18 = experiment: Mini cell panel: inhibition of proliferation of LN-18 cells; conditions: Homo sapiens, LN-18, MTAP (-/-)
# Description: as §1, §2
# LU99 = experiment: Mini cell panel: inhibition of proliferation of LU99 cells; conditions: Homo sapiens, Lu-99, MTAP (-/-)
# Description: as §1, §2
# ACHN = experiment: Mini cell panel: inhibition of proliferation of ACHN cells; conditions: Homo sapiens, ACHN, MTAP (-/-)
# Description: as §1, §2
# DOHH-2 = experiment: Mini cell panel: inhibition of proliferation of DOHH-2 cells; conditions: Homo sapiens, DOHH-2, MTAP (-/-)
# Description: as §1, §2
# U87MG = experiment: Mini cell panel: inhibition of proliferation of U87MG cells; conditions: Homo sapiens, U-87 MG, MTAP (-/-)
# Description: as §1, §2
# [1] = test system: LN18 MTAP-overexpressing cells; experiment: Inhibition of proliferation of LN18 MTAP-overexpressing cells (CellTiter-Glo); conditions: Homo sapiens, LN-18, 168 h, cell proliferation, 7 days
# Description: Test 6: Assay for Inhibitory Activity of Compounds against LN18 MTAP-Overexpressing Cell Proliferatio
# Materials and Cells: The LN18 MTAP-overexpressing cell line was purchased from Cobioer Biosciences (China). Cell culture media, fetal bovine serum (FBS), and penicillin-streptomycin were purchased from Thermo Fisher Scientific (USA). 384-well plates were purchased from PerkinElmer (USA). The CellTiter-Glo assay kit was purchased from Promega (USA).
# Cell Culture: LN18 MTAP-overexpressing cells were cultured in a medium supplemented with 10% fetal bovine serum (FBS) and 1% penicillin-streptomycin at 37°C with 5% CO2. Only cells in the logarithmic growth phase were used for experiments.
# as §3, with “against LN18 MTAP-overexpressing” for “against U87MG MTAP(-/-)”, “dilutions, 9” for “dilutions, 10”, “of […].” for “of 0.5%.”, “for 7” for “for 6”, “viability.” for “viability. Paclitaxel was used as a control compound.”
# LN18 MTAP(-/-) cells = experiment: Inhibition of proliferation of LN18 MTAP(-/-) cells (CellTiter-Glo); conditions: Homo sapiens, LN-18, 168 h, cell proliferation, 7 days
# Procedure: Test 5: Assay for Inhibitory Activity of Compounds against LN18 MTAP(-/-) Cell Proliferation
# Materials and Cells: The LN18 MTAP(-/-) cell line was provided by Cobioer Biosciences (China). Cell culture media, fetal bovine serum (FBS), and penicillin-streptomycin were purchased from Thermo Fisher Scientific (USA). 384-well plates were purchased from PerkinElmer (USA). The CellTiter-Glo assay kit was purchased from Promega (USA).
# Cell Culture: LN18 MTAP(-/-) cells were cultured in a medium supplemented with 10% fetal bovine serum (FBS) and 1% penicillin-streptomycin at 37°C with 5% CO2. Only cells in the logarithmic growth phase were used for experiments.
# as §3, with “LN18” for “U87MG”, “1,000” for “10,000”, “9” for “10”, “[…].” for “0.5%.”, “7” for “6”, “viability.” for “viability. Paclitaxel was used as a control compound.”
smiles,measurement,setting,value
"CC(=O)O[C@H]1C(=O)[C@@]2(C)[C@H]([C@H](OC(=O)c3ccccc3)[C@]3(O)C[C@H](OC(=O)[C@H](O)[C@@H](NC(=O)c4ccccc4)c4ccccc4)C(C)=C1C3(C)C)[C@]1(OC(C)=O)CO[C@@H]1C[C@@H]2O [Paclitaxel, reference compound]",IC50,BxPc-3,0.9 nM
same,IC50,CFPAC-1,1.1 nM
same,IC50,SU-DHL-4,1.9 nM
same,IC50,SW780,1.6 nM
same,IC50,SU-DHL-10,2.8 nM
same,IC50,MKN-45,1.8 nM
same,IC50,U87MG MTAP(-/-) cells,5.55 nM
same,IC50,PSN-1,2.9 nM
same,IC50,SK-MEL-5,7.8 nM
same,IC50,SW1573,2.5 nM
same,IC50,Calu-1,9.8 nM
same,IC50,NCI-H647,1.4 nM
same,IC50,MDA-MB-231,2.5 nM
same,IC50,Aspc-1,3.4 nM
same,IC50,A549,1.9 nM
same,IC50,LN-18,20.6 nM
same,IC50,LU99,1.5 nM
same,IC50,ACHN,4.1 nM
same,IC50,DOHH-2,3.4 nM
same,IC50,U87MG,5.2 nM
"CN(C(=O)c1cc2c(cc1C#N)nc(N)c1cncn12)[C@@H]1COc2cc(C(F)(F)F)ccc21 [Example 14, (S)-4-amino-7-cyano-N-methyl-N-(6-(trifluoromethyl)-2,3-dihydrobenzofuran-3-yl)imi dazo[1,5-a]quinoxaline-8-carboxamide]",IC50,U87MG MTAP(-/-) cells,79.5 nM
same,IC50,[1],898 nM
same,IC50,LN18 MTAP(-/-) cells,5.56 nM
